Experimental data reported in paper PMC8567874, “Metronomic delivery of orally available pemetrexed-incorporated colloidal dispersions for boosting tumor-specific immunity” (Drug Delivery, 2021).
Read-outs that look alike come from different tables or passages of the source.

Legend:
[1] = In vivo pharmacokinetic study in rats; parameters: species or system Sprague–Dawley (SD) rats
Procedure: The separated plasma samples were kept at −80 °C before analysis and the drug concentration in each plasma sample was determined by LC-MS. […] Agilent Technologies, Santa Clara, CA, USA), conditioned with 500 µL of methanol, followed by 500 µL of deionized water. After loading the standards or samples into the cartridges, the unadsorbed particles were washed out with 500 µL of deionized water and methanol. […] PMX and IS were ionized using electrospray ionization (ESI) source in positive ion mode under a capillary voltage of 3.5 kV, drying gas flow rate of 3.1 L/min, and drying gas temperature of 300 °C. […] Pharmacokinetic parameters were estimated using a non-compartmental model in WinNonlin® software (ver. 5.3; Pharsight Corp., Mountain View, CA, USA). All data were expressed as means ± standard deviations (SDs), or standard errors of the mean (SEMs). Statistical analysis was performed by one-way analysis of variance (ANOVA) followed by Tukey’s multiple comparison test for unpaired data with more than three means. In all analyses, p < .05 was taken to indicate statistical significance.

[2] = system: CT26.CL25 tumor-bearing mice; test: In vivo immunostimulatory effects in CT26.CL25 tumor-bearing mice (flow cytometry, ELISPOT, slide staining); conditions: 3 weeks, PMX 150 mg/kg IV every 3 weeks, PMX/DL-CD oral daily 20 mg/kg PMX
Procedure: To investigate in vivo immunostimulatory effects of oral metronomic PMX, BALB/c mice were inoculated with 1 × 10^6 of CT26.CL25 cells per mouse. The mice were randomly divided into three groups (10 mice per group) once the tumor volume had reached 50–70 mm^3: control (untreated), PMX-IV (150 mg/kg PMX administered IV every 3 weeks), and PMX/DL-CD (oral PMX/DL(1:1)-CD administered daily, equivalent to 20 mg/kg PMX). The mice were sacrificed 3 weeks after treatment and the tumors were isolated. The tumor tissues were converted into single cells by passing them through a 40-µm filter after digestion with collagenase A (0.2% w/v), DNAse (30 U/mL), and dispase (10 U/mL) in MACS (gentleMACS Octo Dissociator with Heaters; Miltenyi Biotec, Bergisch Gladbach, Germany) at 37 °C for 45 min. Some cells were collected for tumor-infiltrating lymphocyte analyses and centrifuged using histopaque-1077 for 20 min at 450 g to isolate the lymphocytes. The isolated cells were then stained with fluorescence-conjugated antibodies and incubated. The cells were washed and suspended in FACS buffer and then collected into FACS tubes. The cells were then analyzed using flow cytometry (FACS Aria II) and the data were analyzed using FlowJo software (FlowJo LLC, Ashland, OR, USA). Cell populations were acquired by gating, as follows: tumor-infiltrating lymphocytes (DAPI^−/CD45^+), helper T cells (DAPI^−/CD45^+/CD3^+/CD4^+), PD-L1-expressing tumor cells (DAPI^−/CD45^−/PD-L1^+), proliferating cytotoxic T cells (DAPI^−/CD45^+/CD3^+/CD8^+/ki67^+), and IFN-γ-secreting T cells (DAPI^−/CD45^+/CD3^+/CD8^+/IFN-γ^+).
Lymphocytes were isolated from the tumors using the procedure described previously; 2 × 10^5 tumor lymphocytes per well, along with β-gal (5 µg/mL), were incubated on pre-coated 96-well plates in CTL test medium for 24 h at 37 °C with 9% CO2. […] After the procedure, the plates were scanned and the spots were counted in the ELISpot counter (Immunospot® S6 ULTIMATE analyzer; Cellular Technology Ltd.). […]

[3] = Octanol/water apparent partition coefficient; assay type: physicochemical; conditions: n = 4, read-out: Log P (logarithm of the octanol/water partition coefficient)
Text: ^aLogarithm of the octanol/water partition coefficient. Each value represents the mean ± standard deviation (n = 4).

[4] = system: CT26.CL25 cells; test: Immunoblotting of CRT and HMGB-1; assay type: cell-based; conditions: CT26.CL25, 300 µM, 48 h, western blot
Procedure: CT26.CL25 cells (1 × 10^5 per well) cultured in 6-well plates were treated with 300 µM DL, 300 µM PMX or PMX/DL (equivalent 300 µM PMX) for 48 h. The cells were then lysed in RIPA buffer with protease and phosphatase inhibitors (GenDEPOT, Barker, TX, USA). Each sample was loaded with 20 µg of protein and fractionated using SDS-PAGE (Biosesang, Gyeonggi-do, South Korea), followed by wet transfer to nitrocellulose membrane (Bio-Rad Laboratories, Inc., Hercules, CA, USA). Anti-CRT, anti-HMGB-1, GAPDH rabbit mAb (Cell Signaling Technology, Danvers, MA, USA), and anti-rabbit IgG peroxidase (Sigma–Aldrich) antibodies were used.

[5] = system: CT26.CL25 cells; test: Immunofluorescence (confocal) analysis of ICD induction; assay type: cell-based; conditions: CT26.CL25, 300 µM, 48 h, confocal microscopy
Procedure: CT26.CL25 cells, cultured in coverslips at 1 × 10^4 cell density, were treated with 300 µM DL, 300 µM PMX, or PMX/DL (equivalent to 300 µM PMX) for 48 h. The PMX dose was converted from the Cmax of the pharmacokinetic profile in patients treated with 500 mg/m^2 PMX-IV (Li et al., [2007]). The cells were then washed with PBS, fixed in 10% formalin solution, and incubated with a cell membrane marker, Texas Red-X conjugated wheat germ agglutinin solution (5 µg/mL), for 10 min at room temperature. The cells were washed and permeabilized with 1% Triton-X solution for 40 min at room temperature. The cells were then incubated overnight with primary anti-CRT (1:200) or anti-HMGB-1 (1:200) antibodies at 4 °C after washing with PBS. On the following day, the cells were washed and incubated with secondary anti-rabbit Alexa Fluor 488 (1:400; Invitrogen; Thermo Fisher Scientific) for 1 h at room temperature and then stained with DAPI. Confocal laser scanning microscopy (TCS SP8; Leica Microsystems, Wetzlar, Germany) was used to obtain images.

[6] = Sprague-Dawley, rat, plasma, IV, 10 mg/kg PMX
[7] = Sprague-Dawley, rat, plasma, oral, 20 mg/kg PMX

Nc1nc2[nH]cc(CCc3ccc(C(=O)N[C@@H](CCC(=O)O)C(=O)O)cc3)c2c(=O)[nH]1 [PMX, Pemetrexed]
Cmax ([1]; IV, 10 mg/kg PMX): 32300 ± 1220 ng/mL | bioavailability ([1]; IV, 10 mg/kg PMX (reference)): 100% | AUC(0-inf) [1, 6]: 25300 ± 3560 ng·h/mL | AUC(0-t) [1, 6]: 25100 ± 3560 ng·h/mL | half-life [1, 6]: 57.2 ± 2.58 min | AUC(0-inf) [1, 7]: 8960 ± 89 ng·h/mL | AUC(0-t) [1, 7]: 3930 ± 380 ng·h/mL | Tmax [1, 7]: 30 min | half-life [1, 7]: 786 ± 109 min | bioavailability ([1]; Sprague-Dawley, rat, plasma, oral, 20 mg/kg PMX, read-out: Bioavailability): 7.8 ± 0.755% | Cmax ([1]; Sprague-Dawley, rat, plasma, oral, 20 mg/kg PMX, read-out: Cmax): 579 ± 73 ng/mL | CD4+ T-cell population in tumor compared to control [2]: substantially increased | CD45+ cell infiltration in tumor compared to control [2]: slightly increased | PD-L1 expression in tumor cells, times greater compared to the control group [2]: two | logP [3]: -1.14 ± 0.01 | CRT- and HMGB-1-protein content compared to untreated and DL-treated cells [4]: higher | CRT-fluorescence compared to controls and DL-treated cells [5]: more intense | HMGB-1-release compared to controls and DL-treated cells [5]: higher
